From patent US20140038985A1, “TREATMENT REGIMENS” (S1 Pharmaceuticals, Inc., priority 2011, published 2014)

Columns and labels:
[1] = tested on: healthy volunteer; test: Patient's global impression of improvement (PGI) for sexual events: arousal, orgasm, overall satisfaction; same single-subject study; assay type: in vivo, human
Procedure: (§1) Method. […] (1) Treatment B: […] IR Trz 50 mg t.i.d.; […] Bup 75 mg t.i.d. A washout of 1-4 weeks occurred between each treatment. […] Sexual events were counted, and three domains (sexual arousal, orgasm, and overall satisfaction with the event) were scored. Each of the sexual event variables was converted to a simple patient's global impression of improvement (PGI; improved or not improved today compared to pre-treatment baseline). […] Bup is already recommended as a treatment for HSDD; Trz is not. Thus, Fisher's exact test was applied post-hoc to the PGIs for Treatment B vs. Treatment Llow (Llow) and vs. […] Upon the advice of the independent researcher the subject dichotomized their sexual event results in a simple daily patient's global impression of improvement: improved or not improved today (compared to pre-treatment baseline). The independent researcher, when told that the results were positive for the subject but before seeing any of the data, decided to apply categorical tests to the most obvious comparisons between treatments: for the first two weeks, the second two weeks, and for all four weeks of treatment, low-dose combination of bupropion plus trazodone vs. corresponding dose of bupropion; and high-dose the combination of bupropion plus trazodone vs. same dose of trazodone. The test used for the desire score was a two-tailed paired t test. The test used for the two-category variables was an online two-tailed Fisher's exact test. Both were from the website graphpad.com.*

[2] = tested on: healthy volunteer; test: Daily 0-2 sexual desire score in a single-subject sequential four-treatment study (4 weeks each); assay type: in vivo, human; conditions: for Sexual desire response (in words): overall
Procedure: as §1

SMILES	Improvements in arousal, % of sexual events ([1]; third and fourth weeks of use)	Improvements in arousal, % of sexual events ([1]; total for all four weeks)	Improvements in arousal, % of sexual events ([1]; weeks 1-2)	Improvements in arousal, fraction of sexual events ([1]; weeks 1-2)	Sexual desire response (in words) [2]	0-2 Daily Desire Score, % of max. (max. = 28) ([2]; wks 1-2)	0-2 Daily Desire Score, % of max. (max. = 28) ([2]; wks 3-4)
CC(NC(C)(C)C)C(=O)c1cccc(Cl)c1 (racemic) [Bup, (±)-2-(tert-Butylamino)-1-(3-chlorophenyl)propan-1-one]	0%	20%	40%	⅖	intermediate	32%	50%
O=c1n(CCCN2CCN(c3cccc(Cl)c3)CC2)nc2ccccn12 [Trz, 2-{3-[4-(3-chlorophenyl)piperazin-1-yl]propyl}[1,2,4]triazolo[4,3-a]pyridin-3(2H)-one]	–	–	–	–	low	7%	0, 0%
